Laboratory results from article PMC7026418, “The kinase polypharmacology landscape of clinical PARP inhibitors” (Scientific Reports, 2020).
Like-named read-outs stand apart in the source and are kept apart here. One block for each molecule: values may come before it.

What was measured:
Assay in all cases: biochemical
Design in all cases: DiscoveRx KINOMEscan active site-directed competition binding; percent of control kinase bound to immobilised ligand
ABL1-phosphorylated = molecular target: T1, ABL1-phosphorylated (Homo sapiens, UniProt P00519)
T1 construct: phosphorylated
T1 sequence (P00519 whole entry): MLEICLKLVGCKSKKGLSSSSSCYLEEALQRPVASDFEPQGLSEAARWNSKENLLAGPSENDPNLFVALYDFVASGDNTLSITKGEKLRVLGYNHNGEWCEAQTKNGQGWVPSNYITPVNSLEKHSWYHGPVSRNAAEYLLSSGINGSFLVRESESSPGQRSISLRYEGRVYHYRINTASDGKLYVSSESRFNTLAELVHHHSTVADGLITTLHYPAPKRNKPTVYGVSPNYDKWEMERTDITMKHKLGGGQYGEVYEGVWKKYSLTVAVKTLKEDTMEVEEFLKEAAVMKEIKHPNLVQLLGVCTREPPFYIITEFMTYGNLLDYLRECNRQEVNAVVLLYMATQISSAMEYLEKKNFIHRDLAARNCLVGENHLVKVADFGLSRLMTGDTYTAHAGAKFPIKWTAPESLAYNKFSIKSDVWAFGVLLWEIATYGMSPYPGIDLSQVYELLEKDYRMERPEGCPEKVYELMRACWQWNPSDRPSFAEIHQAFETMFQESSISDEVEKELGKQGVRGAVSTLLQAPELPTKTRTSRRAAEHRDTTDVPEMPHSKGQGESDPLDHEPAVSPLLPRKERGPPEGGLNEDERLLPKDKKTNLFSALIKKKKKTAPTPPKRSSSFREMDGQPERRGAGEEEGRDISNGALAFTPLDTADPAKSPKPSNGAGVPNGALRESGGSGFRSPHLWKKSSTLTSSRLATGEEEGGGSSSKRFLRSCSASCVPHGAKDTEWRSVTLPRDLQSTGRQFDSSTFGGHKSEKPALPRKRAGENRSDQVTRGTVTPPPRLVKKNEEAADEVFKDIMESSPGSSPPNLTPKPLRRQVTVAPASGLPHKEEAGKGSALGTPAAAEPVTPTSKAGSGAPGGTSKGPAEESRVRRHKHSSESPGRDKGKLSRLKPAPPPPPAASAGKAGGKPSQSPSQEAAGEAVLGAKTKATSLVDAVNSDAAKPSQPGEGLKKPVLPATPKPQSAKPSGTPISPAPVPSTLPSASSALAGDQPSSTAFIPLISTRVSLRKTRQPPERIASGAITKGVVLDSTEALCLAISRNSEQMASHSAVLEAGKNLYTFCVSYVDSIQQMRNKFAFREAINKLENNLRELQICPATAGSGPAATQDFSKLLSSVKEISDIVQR

FLT4 = FLT4 (Homo sapiens, UniProt P35916)
FLT4, sequence (P35916 whole entry): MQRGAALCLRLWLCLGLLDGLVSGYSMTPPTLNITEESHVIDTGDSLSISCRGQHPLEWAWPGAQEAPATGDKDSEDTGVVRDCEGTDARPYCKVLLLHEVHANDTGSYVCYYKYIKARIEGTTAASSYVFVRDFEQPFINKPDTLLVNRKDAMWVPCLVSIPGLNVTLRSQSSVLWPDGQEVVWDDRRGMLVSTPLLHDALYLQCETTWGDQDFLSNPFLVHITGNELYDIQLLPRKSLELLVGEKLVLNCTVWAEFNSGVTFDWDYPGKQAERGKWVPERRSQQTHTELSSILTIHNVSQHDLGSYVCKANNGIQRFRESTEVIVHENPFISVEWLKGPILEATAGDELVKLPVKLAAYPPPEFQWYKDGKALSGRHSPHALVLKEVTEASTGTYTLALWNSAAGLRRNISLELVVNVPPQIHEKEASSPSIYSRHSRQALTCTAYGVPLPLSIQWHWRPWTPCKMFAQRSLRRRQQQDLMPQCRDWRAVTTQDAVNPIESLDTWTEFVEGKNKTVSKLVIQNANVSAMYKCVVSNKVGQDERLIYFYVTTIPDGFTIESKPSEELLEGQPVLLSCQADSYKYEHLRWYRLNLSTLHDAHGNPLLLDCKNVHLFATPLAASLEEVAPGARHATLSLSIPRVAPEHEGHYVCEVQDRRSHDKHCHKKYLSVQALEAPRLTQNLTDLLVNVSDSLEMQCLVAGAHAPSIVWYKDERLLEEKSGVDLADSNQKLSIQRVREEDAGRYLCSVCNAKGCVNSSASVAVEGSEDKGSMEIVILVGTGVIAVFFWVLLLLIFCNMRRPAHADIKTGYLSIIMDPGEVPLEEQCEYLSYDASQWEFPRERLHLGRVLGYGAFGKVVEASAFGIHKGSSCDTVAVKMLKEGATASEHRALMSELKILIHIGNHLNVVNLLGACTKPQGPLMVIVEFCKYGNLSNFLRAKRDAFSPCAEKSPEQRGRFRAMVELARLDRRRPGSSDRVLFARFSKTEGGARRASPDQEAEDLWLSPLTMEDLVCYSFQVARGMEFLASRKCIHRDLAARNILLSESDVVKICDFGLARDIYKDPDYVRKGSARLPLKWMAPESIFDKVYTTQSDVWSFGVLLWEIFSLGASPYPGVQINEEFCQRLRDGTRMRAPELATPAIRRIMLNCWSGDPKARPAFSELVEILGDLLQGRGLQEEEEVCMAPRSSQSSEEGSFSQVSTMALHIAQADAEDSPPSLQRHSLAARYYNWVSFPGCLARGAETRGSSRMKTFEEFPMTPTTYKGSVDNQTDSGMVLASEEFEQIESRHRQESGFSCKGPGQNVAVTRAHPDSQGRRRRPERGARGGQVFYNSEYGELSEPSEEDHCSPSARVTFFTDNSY

ASK1 = molecular target: T2, ASK1 (Homo sapiens, UniProt Q99683)
T2 construct: gene MAP3K5
T2 sequence (Q99683 1-1374): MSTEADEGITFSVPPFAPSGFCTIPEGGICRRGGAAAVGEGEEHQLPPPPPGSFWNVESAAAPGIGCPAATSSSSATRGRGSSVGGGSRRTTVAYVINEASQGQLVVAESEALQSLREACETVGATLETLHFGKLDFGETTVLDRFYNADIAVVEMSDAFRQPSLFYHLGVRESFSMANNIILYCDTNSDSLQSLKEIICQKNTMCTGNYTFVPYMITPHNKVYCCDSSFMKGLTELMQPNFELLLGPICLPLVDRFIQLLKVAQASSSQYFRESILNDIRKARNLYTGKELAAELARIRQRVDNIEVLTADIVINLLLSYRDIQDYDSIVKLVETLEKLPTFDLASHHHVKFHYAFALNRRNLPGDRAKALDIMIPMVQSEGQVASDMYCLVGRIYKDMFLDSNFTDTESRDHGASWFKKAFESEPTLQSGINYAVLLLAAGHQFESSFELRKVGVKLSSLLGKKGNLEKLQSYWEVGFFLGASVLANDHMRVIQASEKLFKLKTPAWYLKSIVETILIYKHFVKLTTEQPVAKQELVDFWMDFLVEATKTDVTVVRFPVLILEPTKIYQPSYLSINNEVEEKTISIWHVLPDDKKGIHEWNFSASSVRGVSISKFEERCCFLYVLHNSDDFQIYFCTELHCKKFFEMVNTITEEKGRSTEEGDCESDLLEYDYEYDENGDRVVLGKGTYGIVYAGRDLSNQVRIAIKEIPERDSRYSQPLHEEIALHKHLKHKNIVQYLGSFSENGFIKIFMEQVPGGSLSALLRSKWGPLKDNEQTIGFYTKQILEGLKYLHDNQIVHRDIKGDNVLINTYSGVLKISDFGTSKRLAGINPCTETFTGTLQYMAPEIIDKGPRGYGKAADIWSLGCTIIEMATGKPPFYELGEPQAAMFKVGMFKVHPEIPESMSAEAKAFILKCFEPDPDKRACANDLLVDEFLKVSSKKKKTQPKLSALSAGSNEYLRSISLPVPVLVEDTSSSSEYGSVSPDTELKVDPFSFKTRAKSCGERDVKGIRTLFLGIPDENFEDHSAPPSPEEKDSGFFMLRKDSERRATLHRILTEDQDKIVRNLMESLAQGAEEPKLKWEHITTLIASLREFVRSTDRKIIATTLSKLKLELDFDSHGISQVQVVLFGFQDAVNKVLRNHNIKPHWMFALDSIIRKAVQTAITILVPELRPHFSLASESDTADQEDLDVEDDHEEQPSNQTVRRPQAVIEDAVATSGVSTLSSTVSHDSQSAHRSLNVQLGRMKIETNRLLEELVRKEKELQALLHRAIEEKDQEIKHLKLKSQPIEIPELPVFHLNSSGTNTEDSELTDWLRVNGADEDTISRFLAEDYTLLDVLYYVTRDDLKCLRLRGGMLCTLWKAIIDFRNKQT

MKNK1 = MKNK1 (Homo sapiens, UniProt Q9BUB5)
MKNK1, sequence (Q9BUB5 whole entry): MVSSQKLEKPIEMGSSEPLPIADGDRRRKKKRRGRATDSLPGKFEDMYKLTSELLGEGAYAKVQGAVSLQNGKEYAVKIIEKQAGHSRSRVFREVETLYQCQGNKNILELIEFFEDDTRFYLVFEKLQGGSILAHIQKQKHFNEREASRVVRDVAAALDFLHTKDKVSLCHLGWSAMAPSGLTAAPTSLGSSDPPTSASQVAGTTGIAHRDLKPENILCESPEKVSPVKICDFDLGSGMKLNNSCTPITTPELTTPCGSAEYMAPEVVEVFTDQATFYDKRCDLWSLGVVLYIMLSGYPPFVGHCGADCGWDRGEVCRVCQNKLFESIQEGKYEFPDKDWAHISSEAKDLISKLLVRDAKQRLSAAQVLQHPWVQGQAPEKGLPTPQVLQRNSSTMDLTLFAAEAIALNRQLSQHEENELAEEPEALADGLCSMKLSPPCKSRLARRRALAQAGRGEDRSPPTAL

HCK = HCK (Homo sapiens, UniProt P08631)
HCK, sequence (P08631 whole entry): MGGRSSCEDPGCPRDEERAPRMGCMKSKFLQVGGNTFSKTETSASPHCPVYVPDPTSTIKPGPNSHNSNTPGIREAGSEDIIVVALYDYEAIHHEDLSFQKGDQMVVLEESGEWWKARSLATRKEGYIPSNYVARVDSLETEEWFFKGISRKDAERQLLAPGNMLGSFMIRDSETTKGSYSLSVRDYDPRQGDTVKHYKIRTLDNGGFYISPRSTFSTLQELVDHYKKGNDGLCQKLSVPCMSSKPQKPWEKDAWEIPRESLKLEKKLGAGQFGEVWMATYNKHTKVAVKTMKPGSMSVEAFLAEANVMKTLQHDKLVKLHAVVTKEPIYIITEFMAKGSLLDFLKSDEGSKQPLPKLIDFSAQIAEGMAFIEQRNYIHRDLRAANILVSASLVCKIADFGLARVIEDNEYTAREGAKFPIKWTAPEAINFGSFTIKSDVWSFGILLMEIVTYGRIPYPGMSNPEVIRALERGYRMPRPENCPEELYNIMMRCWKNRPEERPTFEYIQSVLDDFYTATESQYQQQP

CDKL5 = molecular target: T3, CDKL5 (Homo sapiens, UniProt O76039)
T3 sequence (O76039 1-960): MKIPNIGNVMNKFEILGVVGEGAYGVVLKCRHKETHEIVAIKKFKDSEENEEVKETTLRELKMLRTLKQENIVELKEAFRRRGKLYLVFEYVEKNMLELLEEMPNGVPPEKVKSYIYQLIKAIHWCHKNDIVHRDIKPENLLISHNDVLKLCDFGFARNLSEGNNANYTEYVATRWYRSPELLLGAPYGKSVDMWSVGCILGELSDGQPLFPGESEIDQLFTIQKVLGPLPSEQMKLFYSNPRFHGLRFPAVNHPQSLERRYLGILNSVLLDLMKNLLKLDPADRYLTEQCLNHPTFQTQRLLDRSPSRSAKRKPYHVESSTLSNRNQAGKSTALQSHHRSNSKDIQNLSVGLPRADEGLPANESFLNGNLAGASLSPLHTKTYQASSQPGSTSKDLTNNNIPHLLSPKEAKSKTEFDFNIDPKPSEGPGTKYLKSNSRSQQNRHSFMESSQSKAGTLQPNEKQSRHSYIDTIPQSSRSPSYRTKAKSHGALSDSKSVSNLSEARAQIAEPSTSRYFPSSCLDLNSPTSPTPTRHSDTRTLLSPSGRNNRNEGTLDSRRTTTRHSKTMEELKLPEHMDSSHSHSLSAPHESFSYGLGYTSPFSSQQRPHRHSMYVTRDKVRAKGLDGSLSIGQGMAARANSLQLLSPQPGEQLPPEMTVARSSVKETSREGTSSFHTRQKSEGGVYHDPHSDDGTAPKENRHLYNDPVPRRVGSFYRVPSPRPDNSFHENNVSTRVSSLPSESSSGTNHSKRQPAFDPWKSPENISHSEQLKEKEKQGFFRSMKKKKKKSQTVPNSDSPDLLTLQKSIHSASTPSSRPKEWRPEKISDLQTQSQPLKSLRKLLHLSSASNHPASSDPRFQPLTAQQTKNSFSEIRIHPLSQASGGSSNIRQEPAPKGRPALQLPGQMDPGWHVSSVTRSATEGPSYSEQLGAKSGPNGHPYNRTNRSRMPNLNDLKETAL

[1] = read-out: Olaparib / %Ctrl @ 10000nM
[2] = read-out: Talazoparib (BMN 673) / %Ctrl @ 10000nM
[3] = read-out: Rucaparib / %Ctrl @ 10000nM, binding competition, % of control
[4] = read-out: Niraparib (MK-4827) / %Ctrl @ 10000nM

percent of control binding at 10 µM (ABL1-phosphorylated; [1]): 98%
percent of control binding at 10 µM (FLT4; [1]): 97%
percent of control binding at 10 µM (ASK1; [1]): 94%
percent of control binding at 10 µM (MKNK1; [1]): 82%
percent of control binding at 10 µM (HCK; [1]): 96%
percent of control binding at 10 µM (CDKL5; [1]): 98%
SMILES: O=C(c1cc(Cc2n[nH]c(=O)c3ccccc23)ccc1F)N1CCN(C(=O)C2CC2)CC1 [Olaparib]

percent of control binding at 10 µM (ABL1-phosphorylated; [2]): 100%
percent of control binding at 10 µM (FLT4; [2]): 93%
percent of control binding at 10 µM (ASK1; [2]): 93%
percent of control binding at 10 µM (MKNK1; [2]): 100%
percent of control binding at 10 µM (HCK; [2]): 86%
percent of control binding at 10 µM (CDKL5; [2]): 100%
SMILES: Cn1ncnc1[C@H]1c2n[nH]c(=O)c3cc(F)cc(c23)N[C@@H]1c1ccc(F)cc1 [Talazoparib]

percent of control binding at 10 µM (ABL1-phosphorylated; [3]): 98%
percent of control binding at 10 µM (FLT4; [3]): 95%
percent of control binding at 10 µM (ASK1; [3]): 92%
percent of control binding at 10 µM (MKNK1; [3]): 97%
percent of control binding at 10 µM (HCK; [3]): 74%
percent of control binding at 10 µM (CDKL5; [3]): 30%
SMILES: CNCc1ccc(-c2[nH]c3cc(F)cc4c3c2CCNC4=O)cc1 [Rucaparib]

SMILES: NC(=O)c1cccc2cn(-c3ccc([C@@H]4CCCNC4)cc3)nc12 [Niraparib]
percent of control binding at 10 µM (ABL1-phosphorylated; [4]): 80%
percent of control binding at 10 µM (FLT4; [4]): 99%
percent of control binding at 10 µM (ASK1; [4]): 90%
percent of control binding at 10 µM (MKNK1; [4]): 100%
percent of control binding at 10 µM (HCK; [4]): 70%
percent of control binding at 10 µM (CDKL5; [4]): 86%
